In ChEMBL document CHEMBL1201862, “PubChem BioAssay data set” (2004):
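Tested at 5 concentrations; 48 h exposure; 96-well plates; endpoints linearly interpolated, else capped at highest concentration. GI50 is the concentration that inhibits growth by half.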 Calls of active or inactive are those of the source. No stated cut-off is given here; in the data, active = GI50 up to about 1.1 µM and inactive = higher.

How the values were obtained:
Assay in all cases: NCI-60 cell line screen, 48 h
TK-10 = tested on: TK-10
SNB-19 = tested on: SNB-19
SF-268 = tested on: SF-268
SW-620 = tested on: SW-620
T47D = tested on: T47D
MDA-MB-435 = tested on: MDA-MB-435
NCI-H23 = tested on: NCI-H23
SNB-75 = tested on: SNB-75
CAKI-1 = tested on: CAKI-1
OVCAR-3 = tested on: OVCAR-3
Malme-3M = tested on: Malme-3M
HOP-92 = tested on: HOP-92
RXF 393 = tested on: RXF 393
SN12C = tested on: SN12C
A549 = tested on: A549
HCT-116 = tested on: HCT-116
MOLT-4 = tested on: MOLT-4
CCRF-CEM = tested on: CCRF-CEM
SK-MEL-5 = tested on: SK-MEL-5
A498 = tested on: A498
HCT-15 = tested on: HCT-15
NCI-H226 = tested on: NCI-H226
ACHN = tested on: ACHN
OVCAR-5 = tested on: OVCAR-5
HL-60 = tested on: HL-60
SK-MEL-2 = tested on: SK-MEL-2
U-251 = tested on: U-251
OVCAR-8 = tested on: OVCAR-8
KM12 = tested on: KM12
Hs-578T = tested on: Hs-578T
NCI/ADR-RES = tested on: NCI/ADR-RES
SF-295 = tested on: SF-295
MCF7 = tested on: MCF7
M14 = tested on: M14
BT-549 = tested on: BT-549
MDA-N = tested on: MDA-N
UO-31 = tested on: UO-31
SF-539 = tested on: SF-539
EKVX = tested on: EKVX
LOX IMVI = tested on: LOX IMVI
UACC-257 = tested on: UACC-257
COLO 205 = tested on: COLO 205
PC-3 = tested on: PC-3
SR = tested on: SR
SK-OV-3 = tested on: SK-OV-3
RPMI-8226 = tested on: RPMI-8226
K562 = tested on: K562
HOP-62 = tested on: HOP-62
NCI-H460 = tested on: NCI-H460
SK-MEL-28 = tested on: SK-MEL-28
HT-29 = tested on: HT-29
IGROV-1 = tested on: IGROV-1
786-0 = tested on: 786-0
MDA-MB-231 = tested on: MDA-MB-231
OVCAR-4 = tested on: OVCAR-4
NCI-H522 = tested on: NCI-H522
UACC-62 = tested on: UACC-62
DU-145 = tested on: DU-145
HCC 2998 = tested on: HCC 2998

Measured: GI50

CCOC(=S)SCC(=O)O
> 100 µM: HCT-15
active: CCRF-CEM 1 µM
inactive: TK-10 > 100 µM | SNB-19 > 100 µM | SF-268 > 100 µM | SW-620 > 100 µM | T47D > 100 µM | MDA-MB-435 > 100 µM | NCI-H23 > 100 µM | SNB-75 > 100 µM | CAKI-1 > 100 µM | OVCAR-3 > 100 µM | Malme-3M > 100 µM | HOP-92 > 100 µM | RXF 393 > 100 µM | SN12C > 100 µM | A549 > 100 µM | HCT-116 > 100 µM | MOLT-4 > 100 µM | SK-MEL-5 > 100 µM | A498 > 100 µM | NCI-H226 > 100 µM | ACHN > 100 µM | OVCAR-5 > 100 µM | HL-60 2.01 µM | SK-MEL-2 > 100 µM | U-251 > 100 µM | OVCAR-8 > 100 µM | KM12 > 100 µM | Hs-578T > 100 µM | NCI/ADR-RES > 100 µM | SF-295 > 100 µM | MCF7 > 100 µM | M14 > 100 µM | BT-549 > 100 µM | MDA-N > 100 µM | UO-31 > 100 µM | SF-539 > 100 µM | EKVX > 100 µM | LOX IMVI > 100 µM | UACC-257 > 100 µM | COLO 205 > 100 µM | PC-3 > 100 µM | SR > 100 µM | SK-OV-3 > 100 µM | RPMI-8226 > 100 µM | K562 > 100 µM | HOP-62 > 100 µM | NCI-H460 > 100 µM | SK-MEL-28 > 100 µM | HT-29 > 100 µM | IGROV-1 > 100 µM | 786-0 > 100 µM | MDA-MB-231 > 100 µM | OVCAR-4 > 100 µM | NCI-H522 > 100 µM | UACC-62 > 100 µM

Brc1ccccc1-c1ncc(-c2ccccc2)o1
inactive: TK-10 47.2 µM | SNB-19 > 100 µM | SF-268 27.9 µM | SW-620 35.6 µM | T47D 9.29 µM | MDA-MB-435 23.6 µM | NCI-H23 29.4 µM | SNB-75 20.6 µM | CAKI-1 32.1 µM | OVCAR-3 22 µM | Malme-3M 26.7 µM | HOP-92 17.8 µM | RXF 393 21.7 µM | SN12C 55.2 µM | A549 44.7 µM | HCT-116 34.8 µM | MOLT-4 14.2 µM | CCRF-CEM 24.9 µM | SK-MEL-5 18.1 µM | A498 23 µM | ACHN 33.6 µM | OVCAR-5 66.5 µM | HL-60 30.5 µM | SK-MEL-2 27.3 µM | U-251 17 µM | OVCAR-8 37.1 µM | KM12 17.4 µM | Hs-578T 10.3 µM | NCI/ADR-RES 30.8 µM | DU-145 32.1 µM | SF-295 33.9 µM | MCF7 3.47 µM | M14 29.6 µM | BT-549 29.2 µM | MDA-N 31 µM | UO-31 43.7 µM | SF-539 9.91 µM | EKVX 6.7 µM | LOX IMVI 17.1 µM | UACC-257 30.3 µM | COLO 205 20.1 µM | PC-3 34.2 µM | SK-OV-3 31.1 µM | HCC 2998 30 µM | RPMI-8226 15 µM | K562 21.1 µM | HOP-62 27.8 µM | NCI-H460 29.9 µM | SK-MEL-28 40.6 µM | HT-29 29.9 µM | IGROV-1 19.2 µM | MDA-MB-231 38 µM | OVCAR-4 29.4 µM | NCI-H522 22.6 µM | UACC-62 32.2 µM
7.36 µM: HCT-15
